Like-named read-outs stand apart in the source and are kept apart here. Values belong to the compound of their own block, whether it stands above or below them.
Tests used:
[1] = biological target: T1, αvβ6-integrin (Homo sapiens, UniProt P06756+P18564); experiment: ELISA on immobilized integrins (integrin affinity), αvβ6; format: binding; conditions: 95% confidence interval in parentheses
From the text: (§1) Materials, reagents, general procedures, and instrumentation used for chemical syntheses and analyses have been detailed elsewhere. In addition to what has been reported before, the building block TRAP(azide)3 was purchased from Fosfinos s.r.o. (Kladno, CZ). c[FGDLAFp(NMe)K(pentynoic amide)] and TRAP(AvB6)3 were synthesized according to the literature. Previously described protocols were followed for determination of integrin affinities by ELISA on immobilized integrins and for β6-integrin immunohistochemistry (IHC).

[2] = biological target: αvβ8-integrin (Homo sapiens, UniProt P06756+P26012); experiment: ELISA on immobilized integrins (integrin affinity), αvβ8; format: binding; conditions: for IC50: 95% confidence interval in parentheses; for αvβ6-selectivity over αvβ8: IC50-based factor
Sequence of αvβ8-integrin (P06756 31-992 limits assumed): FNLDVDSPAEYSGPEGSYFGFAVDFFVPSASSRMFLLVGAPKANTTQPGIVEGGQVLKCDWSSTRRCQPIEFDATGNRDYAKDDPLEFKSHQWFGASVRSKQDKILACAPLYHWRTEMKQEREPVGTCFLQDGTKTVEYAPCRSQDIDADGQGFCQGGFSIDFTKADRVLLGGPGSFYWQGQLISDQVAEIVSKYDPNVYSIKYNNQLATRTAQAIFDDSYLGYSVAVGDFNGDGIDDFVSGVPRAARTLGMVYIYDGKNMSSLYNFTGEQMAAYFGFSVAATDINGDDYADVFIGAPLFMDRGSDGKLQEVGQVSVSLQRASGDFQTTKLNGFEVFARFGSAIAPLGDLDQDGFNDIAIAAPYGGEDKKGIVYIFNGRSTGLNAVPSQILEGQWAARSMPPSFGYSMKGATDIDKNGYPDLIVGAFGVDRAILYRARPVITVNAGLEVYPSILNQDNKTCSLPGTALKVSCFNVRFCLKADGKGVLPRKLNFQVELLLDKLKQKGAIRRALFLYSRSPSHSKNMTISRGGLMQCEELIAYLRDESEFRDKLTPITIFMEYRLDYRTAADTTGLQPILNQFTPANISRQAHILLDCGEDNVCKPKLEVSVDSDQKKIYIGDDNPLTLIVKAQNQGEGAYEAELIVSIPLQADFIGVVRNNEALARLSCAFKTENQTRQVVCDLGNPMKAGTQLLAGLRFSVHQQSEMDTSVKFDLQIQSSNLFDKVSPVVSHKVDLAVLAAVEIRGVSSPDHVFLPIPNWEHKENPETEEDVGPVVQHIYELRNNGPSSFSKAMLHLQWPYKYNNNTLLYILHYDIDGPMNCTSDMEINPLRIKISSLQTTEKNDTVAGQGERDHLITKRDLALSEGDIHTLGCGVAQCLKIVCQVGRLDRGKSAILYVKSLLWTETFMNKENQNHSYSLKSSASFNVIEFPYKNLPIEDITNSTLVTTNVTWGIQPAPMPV
Sequence of αvβ8-integrin (P26012 43-684 limits assumed): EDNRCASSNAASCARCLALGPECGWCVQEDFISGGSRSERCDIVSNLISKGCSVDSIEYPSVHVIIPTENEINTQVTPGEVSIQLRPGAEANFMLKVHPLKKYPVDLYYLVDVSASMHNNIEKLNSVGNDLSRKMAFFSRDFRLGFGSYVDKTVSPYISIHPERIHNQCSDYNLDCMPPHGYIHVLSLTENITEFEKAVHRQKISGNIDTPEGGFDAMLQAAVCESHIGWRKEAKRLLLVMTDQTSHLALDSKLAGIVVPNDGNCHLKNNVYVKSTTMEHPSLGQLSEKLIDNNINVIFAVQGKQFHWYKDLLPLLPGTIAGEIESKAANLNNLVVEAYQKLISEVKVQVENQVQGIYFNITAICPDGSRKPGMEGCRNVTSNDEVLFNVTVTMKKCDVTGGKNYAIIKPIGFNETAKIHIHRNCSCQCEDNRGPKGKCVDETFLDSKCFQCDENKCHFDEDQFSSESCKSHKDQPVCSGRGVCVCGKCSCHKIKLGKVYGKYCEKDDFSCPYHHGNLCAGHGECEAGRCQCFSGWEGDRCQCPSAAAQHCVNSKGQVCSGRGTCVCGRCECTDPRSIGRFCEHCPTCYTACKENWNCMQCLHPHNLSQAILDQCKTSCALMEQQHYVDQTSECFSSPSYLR
From the text: as §1

[3] = biological target: αvβ3-integrin (Homo sapiens, UniProt P05106+P06756); experiment: ELISA on immobilized integrins (integrin affinity), αvβ3; format: binding; conditions: for IC50: 95% confidence interval in parentheses; for αvβ6-selectivity over αvβ3: IC50-based factor
From the text: as §1

[4] = biological target: α5β1-integrin (Homo sapiens, UniProt P05556+P08648); experiment: ELISA on immobilized integrins (integrin affinity), α5β1; format: binding; conditions: for αvβ6-selectivity over α5β1: IC50-based factor
Sequence of α5β1-integrin (P08648 42-995 limits assumed): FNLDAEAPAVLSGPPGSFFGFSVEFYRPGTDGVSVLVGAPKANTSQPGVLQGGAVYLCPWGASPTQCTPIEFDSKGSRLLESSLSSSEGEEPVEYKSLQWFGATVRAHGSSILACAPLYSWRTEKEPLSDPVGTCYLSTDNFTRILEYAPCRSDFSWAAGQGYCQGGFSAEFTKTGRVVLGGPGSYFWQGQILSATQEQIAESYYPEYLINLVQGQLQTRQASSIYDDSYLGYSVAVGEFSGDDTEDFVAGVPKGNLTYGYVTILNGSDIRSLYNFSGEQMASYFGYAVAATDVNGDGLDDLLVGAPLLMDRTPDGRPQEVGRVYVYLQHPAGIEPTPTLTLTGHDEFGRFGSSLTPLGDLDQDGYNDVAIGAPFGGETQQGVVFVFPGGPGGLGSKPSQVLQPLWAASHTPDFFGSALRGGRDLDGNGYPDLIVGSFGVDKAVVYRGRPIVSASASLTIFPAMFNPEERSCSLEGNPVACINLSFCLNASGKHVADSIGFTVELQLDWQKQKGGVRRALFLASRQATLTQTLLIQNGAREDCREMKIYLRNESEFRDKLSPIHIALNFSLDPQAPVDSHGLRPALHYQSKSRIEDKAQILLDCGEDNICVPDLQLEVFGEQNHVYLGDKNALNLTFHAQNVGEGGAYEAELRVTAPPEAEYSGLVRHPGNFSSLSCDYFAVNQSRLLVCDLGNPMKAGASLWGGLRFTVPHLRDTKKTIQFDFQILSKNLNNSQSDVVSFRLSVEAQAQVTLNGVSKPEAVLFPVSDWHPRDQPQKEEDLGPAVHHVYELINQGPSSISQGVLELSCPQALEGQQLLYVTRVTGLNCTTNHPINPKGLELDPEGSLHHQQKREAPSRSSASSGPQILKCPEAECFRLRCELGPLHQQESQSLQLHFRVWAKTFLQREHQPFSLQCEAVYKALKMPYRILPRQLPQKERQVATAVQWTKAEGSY
Sequence of α5β1-integrin (P05556 21-728 limits assumed): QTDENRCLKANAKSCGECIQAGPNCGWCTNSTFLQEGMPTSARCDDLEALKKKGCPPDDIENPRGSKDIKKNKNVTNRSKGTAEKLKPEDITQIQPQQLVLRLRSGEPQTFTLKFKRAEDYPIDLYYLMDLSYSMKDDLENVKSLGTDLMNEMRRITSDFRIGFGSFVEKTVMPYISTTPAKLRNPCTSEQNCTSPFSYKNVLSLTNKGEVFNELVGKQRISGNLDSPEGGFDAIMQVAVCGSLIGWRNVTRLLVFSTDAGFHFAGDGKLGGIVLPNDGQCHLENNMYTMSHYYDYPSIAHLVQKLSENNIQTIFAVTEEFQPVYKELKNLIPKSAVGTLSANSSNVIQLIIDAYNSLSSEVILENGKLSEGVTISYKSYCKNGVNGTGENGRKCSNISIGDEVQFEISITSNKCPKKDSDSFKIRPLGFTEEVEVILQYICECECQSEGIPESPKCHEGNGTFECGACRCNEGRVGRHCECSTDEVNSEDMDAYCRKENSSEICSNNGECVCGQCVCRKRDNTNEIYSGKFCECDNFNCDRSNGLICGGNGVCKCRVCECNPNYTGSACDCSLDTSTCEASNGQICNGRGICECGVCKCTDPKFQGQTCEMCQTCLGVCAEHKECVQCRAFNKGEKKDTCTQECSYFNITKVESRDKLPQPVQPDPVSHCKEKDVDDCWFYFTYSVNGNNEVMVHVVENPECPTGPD
From the text: as §1

[5] = format: physicochemical; conditions: pH 7.4
From the text: Radiolabeling for preclinical experiments and determination of n-octanol–PBS distribution coefficients (log D7.4) was done as described. Applying this protocol, 5 nmol (0.5 nmol for cellular assays in order to maximize molar activity) of TRAP(AvB6)3 or Trivehexin were labeled with ^68 Ga at pH 2, resulting in RCY > 95%. The purity of the radiolabeled compounds was confirmed by radio-TLC, using silica impregnated glass fiber chromatography paper (ITLC® by Agilent) as stationary phase and 0.1 M aq. sodium citrate as mobile phase (purities were > 99%).

[6] = in vivo; conditions: SCID, mouse, total radioactivity
From the text: All animal experiments were approved by the responsible authority (Regierung von Oberbayern) and have been performed in accordance with general animal welfare regulations in Germany and the institutional guidelines for the care and use of animals. Keeping of the animals, generation of subcutaneous H2009 and MDA-MB-231 tumor xenografts, ex-vivo biodistribution studies, and µPET imaging were done according to previously described protocols. Multiplicity of PET and biodistribution studies ranged from 3 to 5; animal numbers for each individual experiment are denoted in the respective data tables in the Supporting Information and, additionally, in the Results section.

[7] = biological target: T1, αvβ6-integrin; conditions: cited from earlier work
[8] = tested on: αvβ6-integrin expressing carcinomas; experiment: PET/CT imaging of carcinomas in human (HNSCC, parotideal adenocarcinoma, PDAC); format: in vivo
Protocol: All human participants provided written informed consent, also for publication of images, prior to the investigation. […] No significant changes in vital signs or the results of laboratory studies or electrocardiograms were observed. Data for a total of 4 human subjects were included in this report. The PET/CT for patient #1 was performed according to a previously published protocol, as was calculation of the dosimetric parameters.
A panendoscopy and tracheostomy were carried out 4 weeks prior to the [^18F]FDG. The tumor was not suitable for surgical removal and a simultaneous radiochemotherapy was indicated.
Patient #3 (Fig. 4C–E) was diagnosed with an adenocarcinoma (salivary duct carcinoma) in the right […] in 2019 and initially underwent total parotidectomy and unilateral neck dissection (pT2 pN1b [21/23] L1 V1 Pn1 R1). A post-resection and contralateral neck-dissection was performed 1 month later, followed by adjuvant radiation. In 2020 the patient developed prelaryngeal and lateral orbita angle metastases, which were resected and adjuvantly irradiated. […] Since no further tumor manifestations were present in both examinations, surgical resection was indicated and performed. β6-integrin IHC [21] was done for specimen of the excised metastasis.
Patient #4 was diagnosed with a carcinoma of the pancreatic head by endosonography and CT morphology. Pancreatic adenocarcinoma was verified by biopsy. […] According to this finding, surgical treatment was rejected and a chemotherapy regimen was started.

[9] = ref [34], read-out: IC50 (αvβ6-integrin affinity)

T1 sequence (P06756 31-992 limits assumed): as the sequence (P06756 31-992 limits assumed) above
T1 sequence (P18564 22-707 limits assumed): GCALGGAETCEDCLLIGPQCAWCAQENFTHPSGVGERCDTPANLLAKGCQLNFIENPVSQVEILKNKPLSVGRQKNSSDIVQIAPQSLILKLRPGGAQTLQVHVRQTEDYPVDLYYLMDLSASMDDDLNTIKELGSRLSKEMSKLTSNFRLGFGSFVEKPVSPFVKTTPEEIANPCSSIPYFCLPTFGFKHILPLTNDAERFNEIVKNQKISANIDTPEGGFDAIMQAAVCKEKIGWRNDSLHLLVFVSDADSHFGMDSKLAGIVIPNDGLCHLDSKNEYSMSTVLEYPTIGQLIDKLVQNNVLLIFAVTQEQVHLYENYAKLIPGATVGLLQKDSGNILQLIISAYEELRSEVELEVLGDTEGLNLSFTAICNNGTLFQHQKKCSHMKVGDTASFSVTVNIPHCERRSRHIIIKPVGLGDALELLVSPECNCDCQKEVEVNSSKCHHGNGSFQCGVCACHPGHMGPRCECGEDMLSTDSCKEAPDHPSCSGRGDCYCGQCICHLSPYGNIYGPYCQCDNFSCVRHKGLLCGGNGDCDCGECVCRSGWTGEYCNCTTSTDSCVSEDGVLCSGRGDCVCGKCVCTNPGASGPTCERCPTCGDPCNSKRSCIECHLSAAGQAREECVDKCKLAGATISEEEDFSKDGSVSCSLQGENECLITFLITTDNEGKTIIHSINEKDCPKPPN

- IC50 [1]: 0.17 nM
- IC50 [2]: 32 nM
- αvβ6-selectivity over αvβ8 [2]: 188
- IC50 [3]: 424 nM
- αvβ6-selectivity over αvβ3 [3]: 2494
- αvβ6-selectivity over α5β1 [4]: 1329
Compound: C#CCCC(=O)NCCCC[C@H]1C(=O)N[C@@H](Cc2ccccc2)C(=O)N[C@@H](CCCNC(=N)N)C(=O)NCC(=O)N[C@@H](CC(=O)O)C(=O)N[C@@H](CC(C)C)C(=O)N[C@@H](C)C(=O)N[C@@H](Cc2ccccc2)C(=O)N2CCC[C@@H]2C(=O)N1C [c[FRGDLAFp(NMe)K(pentynoic amide)], reference compound]

Compound: CC(C)C[C@@H]1NC(=O)[C@H](CC(=O)O)NC(=O)CNC(=O)[C@H](CCCNC(=N)N)NC(=O)[C@H](Cc2ccccc2)NC(=O)[C@H](CCCCNC(=O)CCc2cn(CCCNC(=O)CCP(=O)(O)CN3CCN(CP(=O)(O)CCC(=O)NCCCn4cc(CCC(=O)NCCCC[C@H]5C(=O)N[C@@H](Cc6ccccc6)C(=O)N[C@@H](CCCNC(=N)N)C(=O)NCC(=O)N[C@@H](CC(=O)O)C(=O)N[C@@H](CC(C)C)C(=O)N[C@@H](C)C(=O)N[C@@H](Cc6ccccc6)C(=O)N6CCC[C@@H]6C(=O)N5C)nn4)CCN(CP(=O)(O)CCC(=O)NCCCn4cc(CCC(=O)NCCCC[C@H]5C(=O)N[C@@H](Cc6ccccc6)C(=O)N[C@@H](CCCNC(=N)N)C(=O)NCC(=O)N[C@@H](CC(=O)O)C(=O)N[C@@H](CC(C)C)C(=O)N[C@@H](C)C(=O)N[C@@H](Cc6ccccc6)C(=O)N6CCC[C@@H]6C(=O)N5C)nn4)CC3)nn2)N(C)C(=O)[C@H]2CCCN2C(=O)[C@H](Cc2ccccc2)NC(=O)[C@H](C)NC1=O [^68 Ga-TRAP(AvB6)3]
- n-octanol-PBS distribution coefficient log D7.4 [5]: − 1.5 ± 0.1
- tissue to tissue ratio at 1.5 h ([6]; tumor/organ ratio Adrenals): 3.7
- tissue to tissue ratio at 1.5 h ([6]; tumor/organ ratio Blood): 2.2
- tissue to tissue ratio at 1.5 h ([6]; tumor/organ ratio Heart (myocard)): 4.2
- tissue to tissue ratio at 1.5 h ([6]; tumor/organ ratio Kidneys): 0.1
- tissue to tissue ratio at 1.5 h ([6]; tumor/organ ratio Large intestine (empty)): 1.6
- tissue to tissue ratio at 1.5 h ([6]; tumor/organ ratio Liver): 1.2
- tissue to tissue ratio at 1.5 h ([6]; tumor/organ ratio Lung): 0.6
- tissue to tissue ratio at 1.5 h ([6]; tumor/organ ratio Muscle): 8.1
- tissue to tissue ratio at 1.5 h ([6]; tumor/organ ratio Pancreas): 10.1
- tissue to tissue ratio at 1.5 h ([6]; tumor/organ ratio Small intestine (empty)): 2.2
- tissue to tissue ratio at 1.5 h ([6]; tumor/organ ratio Spleen): 1.7
- tissue to tissue ratio at 1.5 h ([6]; tumor/organ ratio Stomach (empty)): 0.9
- IC50 ([7]; ref [17], read-out: αvβ6-integrin affinity): 0.023 nM

Compound: c[YRGDLAFp(NMe)K] (YRGDLAFPK; HELM PEPTIDE1{Y.R.G.D.L.A.F.[dP].[meK]}$PEPTIDE1,PEPTIDE1,1:R1-9:R2$$$V2.0; SMILES CC(C)C[C@@H]1NC(=O)[C@H](CC(=O)O)NC(=O)CNC(=O)[C@H](CCCNC(=N)N)NC(=O)[C@H](Cc2ccc(O)cc2)NC(=O)[C@H](CCCCN)N(C)C(=O)[C@H]2CCCN2C(=O)[C@H](Cc2ccccc2)NC(=O)[C@H](C)NC1=O)
- IC50 [7, 9]: 0.4 nM

Compound: OC[C@H]1OC(O)[C@H]([18F])[C@@H](O)[C@@H]1O (some centres unmarked) [[^18F]FDG]
- SUVmax around 7-week-old tracheostoma (inflammation) ([8]; patient #2, 61-62 min p.i.): 10.2
- SUVmax prelaryngeal cutaneous metastasis of parotideal adenocarcinoma ([8]; patient #3, 67-71 min p.i.): 6.1
- metabolic tumor volume ([8]; patient #3, prelaryngeal cutaneous metastasis): 2.2 cm^3

- IC50 [1]: 0.84 nM
- IC50 [2]: 26 nM
- αvβ6-selectivity over αvβ8 [2]: 31
- IC50 [3]: 219 nM
- αvβ6-selectivity over αvβ3 [3]: 261
- IC50 ([4]; 95% confidence interval in parentheses): 150 nM
- αvβ6-selectivity over α5β1 [4]: 179
Compound: C#CCCC(=O)NCCCC[C@H]1C(=O)N[C@@H](Cc2ccc(O)cc2)C(=O)N[C@@H](CCCNC(=N)N)C(=O)NCC(=O)N[C@@H](CC(=O)O)C(=O)N[C@@H](CC(C)C)C(=O)N[C@@H](C)C(=O)N[C@@H](Cc2ccc(O)cc2)C(=O)N2CCC[C@@H]2C(=O)N1C [Tyr2-alkyne, c[YRGDLAYp(NMe)K(pentynoic amide)]]

Compound: c[FRGDLAYp(NMe)K] (FRGDLAYPK; HELM PEPTIDE1{F.R.G.D.L.A.Y.[dP].[meK]}$PEPTIDE1,PEPTIDE1,1:R1-9:R2$$$V2.0; SMILES CC(C)C[C@@H]1NC(=O)[C@H](CC(=O)O)NC(=O)CNC(=O)[C@H](CCCNC(=N)N)NC(=O)[C@H](Cc2ccccc2)NC(=O)[C@H](CCCCN)N(C)C(=O)[C@H]2CCCN2C(=O)[C@H](Cc2ccc(O)cc2)NC(=O)[C@H](C)NC1=O)
- IC50 [7, 9]: 0.39 nM

From PMC8460406, “PET/CT imaging of head-and-neck and pancreatic cancer in humans by targeting the “Cancer Integrin” αvβ6 with Ga-68-Trivehexin” (European Journal of Nuclear Medicine and Molecular Imaging, 2021)
